Measured values from the CheMixHub viscosity set.

Assay: xn = mol fraction of the nth substance listed

NC=O + OCCCO
viscosity [mPa·s], 100 kPa
Details	x1 = 0.1034	x1 = 0.2038	x1 = 0.3016	x1 = 0.4021	x1 = 0.5014	x1 = 0.5969	x1 = 0.7026	x1 = 0.7996	x1 = 0.8975
293.15 K	38.53	28.29	19.85	14.09	10.47	8.232	6.233	5.198	4.415
298.15 K	29.44	21.08	14.33	9.719	7.266	6.123	5.094	4.135	3.811
303.15 K	23.41	16.76	11.34	7.417	5.776	4.679	4.163	3.336	3.213

OCCCO + OCCO
viscosity [mPa·s], 101 kPa
Details	x2 = 0.111	x2 = 0.2019	x2 = 0.359	x2 = 0.4612	x2 = 0.5502	x2 = 0.6262	x2 = 0.7342	x2 = 0.8289	x2 = 0.9111
298.15 K	39.52	37.55	34.13	31.81	–	–	24.96	22.36	19.9
303.15 K	31.57	29.96	27.17	25.33	23.65	22.16	19.81	17.71	15.79
308.15 K	25.57	24.22	21.94	20.45	19.09	17.92	16.08	14.42	12.89

OCCCl + OCCO
293.15 K, 101.33 kPa
Details	viscosity [mPa·s]
x2 = 0.1328	4.422
x2 = 0.2605	5.484
x2 = 0.3003	5.879
x2 = 0.3636	6.593
x2 = 0.4644	7.922
x2 = 0.5437	9.223
x2 = 0.6211	10.66
x2 = 0.6983	12.26
x2 = 0.7424	13.29
x2 = 0.8141	15.21
x2 = 0.8422	15.98
x2 = 0.9168	18.26

CN1CCC[C@H]1c1cccnc1 + Oc1ccccc1
viscosity [mPa·s], 101 kPa
Details	308.15 K	323.15 K
x1 = 0.1004	16.28	7.224
x1 = 0.206	28.72	11.46
x1 = 0.2109	30.07	12.15
x1 = 0.2205	29.73	11.9
x1 = 0.253	29.83	12.06
x1 = 0.255	29.69	12.05
x1 = 0.2629	29.4	12
x1 = 0.2865	28.64	11.74
x1 = 0.3078	27.55	11.63
x1 = 0.4035	21.01	10.08
x1 = 0.4981	16.16	8.092
x1 = 0.6636	7.423	4.797
x1 = 0.7961	5.162	3.41
x1 = 0.861	4.501	3.032

CC(C)C#N + c1ccccc1
viscosity [mPa·s], 101 kPa
Details	x2 = 0.1007	x2 = 0.2057	x2 = 0.307	x2 = 0.3954	x2 = 0.4991	x2 = 0.5899	x2 = 0.6925	x2 = 0.7959	x2 = 0.8965
303.15 K	0.459	0.458	0.46	0.465	0.472	0.483	0.497	0.516	0.539
308.15 K	0.43	0.432	0.432	0.434	0.442	0.451	0.462	0.481	0.498

OCCCl + c1ccccc1
303.15 K, 101.33 kPa
Details	viscosity [mPa·s]
x2 = 0.3365	1.315
x2 = 0.4832	1.008
x2 = 0.6611	0.771
x2 = 0.849	0.613

NC=O + c1ccncc1
298.15 K, 101 kPa
Details	viscosity [mPa·s]
x1 = 0.129	1.064
x1 = 0.1798	1.16
x1 = 0.2662	1.365

OCCCO + c1ccncc1
Details	viscosity [mPa·s]
313.15 K, 101 kPa, x2 = 0.3	8.615

N#C[C-](C#N)C#N.OCC[n+]1ccccc1 + c1ccsc1
Details	viscosity [mPa·s]
313.15 K, 101 kPa, x1 = 0.4042	9.96
